The source made the active and inactive calls.
Assays:
[1] = luciferase reporter signal suppression in cells – H4 neuroglioma cells, luminescence, dose response (AID 1990); format: functional, cell-based
[2] = Luminescence Cell-Based Dose Response HTS to Identify Inhibitors of 5'UTR Stem-Loop Driven Prion Protein mRNA Translation in H4 Neuroglioblastoma Cells. [Related pubchem assays: 1827 (Project Summary), 1813 (Primary HTS)]; format: functional
[3] = target: T1, Heat shock factor protein 1 (Mus musculus, UniProt P38532); experiment: decrease of HSF1-responsive luciferase luminescence – cell-based, NIH3T3, dose retest, confirmation (AID 2382); format: functional;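 also: NIH3T3 fibroblasts with HSF1-driven luciferase reporter stressed by proteasome inhibitor MG132; luminescence from HSF1-driven luciferase expression after 8 hours of MG132 stress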
T1 sequence (P38532 whole entry): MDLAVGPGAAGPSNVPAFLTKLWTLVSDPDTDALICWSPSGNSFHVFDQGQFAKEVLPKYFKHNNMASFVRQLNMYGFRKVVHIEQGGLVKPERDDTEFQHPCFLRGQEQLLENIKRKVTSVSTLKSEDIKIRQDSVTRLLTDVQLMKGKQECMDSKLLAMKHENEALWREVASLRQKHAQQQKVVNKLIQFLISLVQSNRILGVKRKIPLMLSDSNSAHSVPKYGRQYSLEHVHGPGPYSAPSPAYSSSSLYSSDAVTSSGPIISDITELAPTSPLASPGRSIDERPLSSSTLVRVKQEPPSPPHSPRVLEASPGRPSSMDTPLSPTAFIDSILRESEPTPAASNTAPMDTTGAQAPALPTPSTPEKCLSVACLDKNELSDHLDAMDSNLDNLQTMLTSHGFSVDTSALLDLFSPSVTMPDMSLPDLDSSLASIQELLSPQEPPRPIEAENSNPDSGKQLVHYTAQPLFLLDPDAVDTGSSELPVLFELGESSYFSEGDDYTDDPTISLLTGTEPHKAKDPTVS

[4] = alpha-synuclein stem-loop luciferase translation blockers – H4 neuroglioma cells, luminescence, confirmation (AID 1988); format: functional, cell-based
[5] = target: T2, Luciferin 4-monooxygenase (Photinus pyralis, UniProt P08659); experiment: inhibition of purified Photinus pyralis luciferase – biochemical, luminescence, dose response (AID 1891)
T2 sequence (P08659 whole entry): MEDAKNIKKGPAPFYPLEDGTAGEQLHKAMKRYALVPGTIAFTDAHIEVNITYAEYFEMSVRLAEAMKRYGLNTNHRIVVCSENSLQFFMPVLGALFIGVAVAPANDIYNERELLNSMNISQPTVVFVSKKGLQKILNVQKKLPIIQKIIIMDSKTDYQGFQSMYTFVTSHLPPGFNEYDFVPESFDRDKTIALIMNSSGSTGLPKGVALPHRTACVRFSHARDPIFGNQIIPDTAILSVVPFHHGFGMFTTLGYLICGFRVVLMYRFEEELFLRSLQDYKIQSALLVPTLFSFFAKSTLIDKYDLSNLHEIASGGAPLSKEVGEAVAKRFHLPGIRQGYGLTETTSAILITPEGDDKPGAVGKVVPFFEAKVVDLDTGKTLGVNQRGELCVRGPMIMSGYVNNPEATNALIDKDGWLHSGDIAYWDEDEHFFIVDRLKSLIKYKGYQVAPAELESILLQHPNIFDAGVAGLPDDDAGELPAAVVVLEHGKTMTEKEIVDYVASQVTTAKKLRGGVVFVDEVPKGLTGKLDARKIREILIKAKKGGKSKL

[6] = Luminescence Cell-Based Dose Confirmation HTS to Identify Inhibitors of Platelet Dense Granule Release. [Related pubchem assays: 1663 (Primary HTS), 1678 (Summary of Project)]; format: functional
[7] = HEK-293T viability loss after treatment – luminescence, T-cell screen hits, cytotoxicity control for TCR NF-kB inhibitor project, dose response (AID 489026); format: functional, cell-based;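 also: cells exposed to compound about 14 hours before the viability readout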
[8] = target: T2, Luciferin 4-monooxygenase; experiment: inhibition of purified Photinus pyralis luciferase – biochemical, dry powder samples, plate reader, dose response (AID 588451)
H4 [9] = experiment: inhibitors of control reporter signal in H4 cells – cell-based, plate reader, dry powder samples, counter-screen for prion reporter project, dose response (AID 540255); format: functional; conditions: Homo sapiens
H4 [10] = experiment: Amyloid Precursor 5' UTR neuroblastoma cell reporter line Measured in Cell-Based System Using Plate Reader - 2078-04_Inhibitor_Dose_DryPowder_Activity. [Related pubchem assays (depositor defined):AID488894]; format: functional; conditions: Homo sapiens
H4 [11] = experiment: Inhibitors of Prion Protein 5' UTR mRNA Measured in Cell-Based System Using Plate Reader - 2078-01_Inhibitor_Dose_DryPowder_Activity. [Related pubchem assays (depositor defined):AID488894]; format: functional; conditions: Homo sapiens
[12] = reduction of Shn3 3'UTR-driven luciferase in osteoblasts – cell-based, Clone20 osteoblasts, firefly luciferase, cherry-picked, dose response (AID 624132); format: functional;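 also: firefly luciferase luminescence from reporter carrying the Shn3 3'UTR in osteoblasts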
[13] = loss of viability in HepG2 cells – cell-based, CellTiter-Glo, cherry-picked, cytotoxicity control for Shn3 inhibitor project, dose response (AID 624134); format: functional
[14] = blockers of HIV-1 envelope-mediated cell-cell fusion – cherry-pick, dose response (AID 652057); format: functional, cell-based
[15] = viability loss in CEM21 cells – cell-based, CellTiter-Glo luminescence, cherry-picked, cytotoxicity control for viral fusion inhibitor project, dose response (AID 652042); format: functional;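 also: potency for signal decrease meaning cytotoxicity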
[16] = blockers of HIV-1 ZM109 envelope-driven cell-cell fusion – HeLa effector, CEM target cells, luciferase, cherry-pick, dose response (AID 652058); format: functional, cell-based;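 also: luciferase signal from HIV-1 Env mediated cell-cell fusion of effector and target cells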
[17] = off-target signal loss in HeLa-CEM21 co-culture – HeLa F-luc CTL cells, cherry-picked, counter-screen for HIV-1 Env fusion inhibitor project, dose response (AID 652040); format: functional, cell-based;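 also: potency for signal decrease marking cytotoxic or nonspecific inhibition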
[18] = HIV-1 AD8 envelope cell-cell fusion blockers – cherry-pick, dose response (AID 652062); format: functional, cell-based;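 also: luciferase signal from cell-cell fusion driven by HIV-1 clade B AD8 Env; potency is for inhibitors of fusion seen as a drop in luminescence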
[19] = Shn3 3'UTR reporter signal decrease – cell-based, Clone20 osteoblasts, firefly luciferase, cherry-pick, set 2, Schnurri-3 inhibitor project, dose response (AID 720490); format: functional;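 also: actives lower the luminescence signal as inhibitors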
[20] = A549 cell cytotoxicity, dose response, cytotoxicity control, plate reader, cherry-pick, antagonist series (AID 743412); format: functional, cell-based
[21] = toxicity toward HepG2 liver cells – cell-based, plate reader, cherry-pick, antagonist series, cytotoxicity control, dose response (AID 743416); format: functional
[22] = blockers of bursicon-stimulated LGR2 cAMP reporter – cell-based, HEK293, CRE-luciferase reporter, cherry pick, set 2, dose response (AID 743343); format: functional;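 also: transfected cells were stimulated with diluted bursicon conditioned medium after compound addition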
[23] = blockade of melanocortin 4 receptor signaling – cell-based, plate reader, cherry pick, counter-screen for LGR2 antagonist project, dose response (AID 743444); format: functional;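 also: transfected HEK 293 cells stimulated with alpha-MSH peptide; potency of inhibitors of the alpha-MSH evoked signal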
[24] = viability loss in HEK293 cells – cell-based, plate reader, cherry-picked samples, cytotoxicity control, dose response (AID 743446); format: functional
[25] = THP-1 cell cytotoxicity, dose response, cytotoxicity control, set 3 (AID 504852); format: functional; conditions: Mycobacterium tuberculosis
[26] = target: FAD-linked sulfhydryl oxidase ALR (Homo sapiens, UniProt P55789); experiment: ALR-catalysed DTT oxidation blockers – biochemical, H2O2 detection, luminescence, cherry-pick, dose response (AID 493248)
Sequence of FAD-linked sulfhydryl oxidase ALR (P55789 whole entry): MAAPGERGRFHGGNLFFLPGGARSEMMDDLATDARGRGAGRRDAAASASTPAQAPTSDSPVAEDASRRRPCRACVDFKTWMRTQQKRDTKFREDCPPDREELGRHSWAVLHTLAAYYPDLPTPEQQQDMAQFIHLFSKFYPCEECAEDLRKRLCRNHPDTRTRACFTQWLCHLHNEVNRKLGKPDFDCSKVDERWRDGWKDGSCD

Insulin-degrading enzyme [27] = target: T3, Insulin-degrading enzyme (Homo sapiens, UniProt P14735); experiment: recombinant IDE activation, cell-free – biochemical, fluorescence polarization, counter-screen for IDE activator project, dose response (AID 588681)
T3 sequence (P14735 whole entry): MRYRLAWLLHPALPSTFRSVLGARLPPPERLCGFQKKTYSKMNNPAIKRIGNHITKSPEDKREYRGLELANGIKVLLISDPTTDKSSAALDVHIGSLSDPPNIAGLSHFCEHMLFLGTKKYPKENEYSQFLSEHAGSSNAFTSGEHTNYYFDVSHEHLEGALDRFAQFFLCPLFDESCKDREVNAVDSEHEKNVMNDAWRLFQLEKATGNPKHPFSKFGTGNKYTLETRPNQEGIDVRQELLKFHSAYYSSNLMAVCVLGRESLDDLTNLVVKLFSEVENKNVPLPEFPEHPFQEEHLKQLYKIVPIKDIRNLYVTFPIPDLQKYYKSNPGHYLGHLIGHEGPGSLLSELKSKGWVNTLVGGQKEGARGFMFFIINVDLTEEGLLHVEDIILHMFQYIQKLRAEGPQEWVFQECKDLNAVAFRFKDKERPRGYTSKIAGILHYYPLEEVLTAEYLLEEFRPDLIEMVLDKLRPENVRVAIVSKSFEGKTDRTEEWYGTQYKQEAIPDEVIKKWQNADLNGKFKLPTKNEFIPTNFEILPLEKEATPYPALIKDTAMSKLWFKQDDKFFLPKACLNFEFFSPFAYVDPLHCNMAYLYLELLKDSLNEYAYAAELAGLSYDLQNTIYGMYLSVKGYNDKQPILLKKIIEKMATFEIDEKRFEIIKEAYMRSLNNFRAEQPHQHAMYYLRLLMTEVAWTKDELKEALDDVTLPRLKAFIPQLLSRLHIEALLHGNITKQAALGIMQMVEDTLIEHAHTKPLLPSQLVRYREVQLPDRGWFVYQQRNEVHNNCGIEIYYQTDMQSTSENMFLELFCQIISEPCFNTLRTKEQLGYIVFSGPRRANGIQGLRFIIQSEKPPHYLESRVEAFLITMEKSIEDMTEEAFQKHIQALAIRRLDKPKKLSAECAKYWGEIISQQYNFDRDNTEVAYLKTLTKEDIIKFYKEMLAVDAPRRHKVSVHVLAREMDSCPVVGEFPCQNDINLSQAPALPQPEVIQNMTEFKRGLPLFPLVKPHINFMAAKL

Insulin-degrading enzyme [28] = target: T3, Insulin-degrading enzyme; experiment: cellular IDE activation of Abeta substrate cleavage – fluorescence polarization, HEK cells, dose response (AID 588439); format: functional, cell-based
HEK293 [29] = experiment: membrane integrity loss in HEK cells – cell-based, fluorescence, cytotoxicity control for IDE activator project, dose response (AID 588440); format: functional; conditions: Homo sapiens;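 also: cytotoxicity by LDH release measuring loss of membrane integrity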
HEK293 [30] = experiment: optical interference in Abeta FP readout, dose response, artefact control for IDE activator project, biochemical, fluorescence polarization (AID 588442); format: functional, cell-based; conditions: Homo sapiens
Nonstructural protein 1 = Nonstructural protein 1 (Influenza A virus, UniProt Q194T2); format: functional, Influenza A virus (A/California/07/2009(H1N1))
Sequence of Nonstructural protein 1 (Q194T2 whole entry): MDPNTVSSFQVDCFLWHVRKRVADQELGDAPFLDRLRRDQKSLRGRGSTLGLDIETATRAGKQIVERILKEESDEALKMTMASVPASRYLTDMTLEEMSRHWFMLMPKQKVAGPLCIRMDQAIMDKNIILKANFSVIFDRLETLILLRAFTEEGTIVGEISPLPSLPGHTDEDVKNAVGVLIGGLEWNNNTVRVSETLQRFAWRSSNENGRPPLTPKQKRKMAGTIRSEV

Vero = experiment: Vero E6 cell cytotoxicity, dose response, cytotoxicity control (AID 540298); format: functional; conditions: Chlorocebus sabaeus
MDCK [31] = experiment: MDCK cell cytotoxicity, dose response, cytotoxicity control (AID 540296); format: functional; conditions: Canis lupus familiaris
MDCK [32] = experiment: antiviral activity against H1N1 influenza, dose response, cell-based, strain KY136 (AID 540257); format: functional; conditions: Canis lupus familiaris
Apelin receptor = Apelin receptor (Homo sapiens, UniProt P35414); experiment: apelin receptor antagonists, arrestin read-out – cell-based, luminescent, enzyme-fragment complementation, selectivity assay for CCR6 antagonist project, SAR follow-up (AID 588359); format: functional
Sequence of Apelin receptor (P35414 whole entry, the tested form may be a part): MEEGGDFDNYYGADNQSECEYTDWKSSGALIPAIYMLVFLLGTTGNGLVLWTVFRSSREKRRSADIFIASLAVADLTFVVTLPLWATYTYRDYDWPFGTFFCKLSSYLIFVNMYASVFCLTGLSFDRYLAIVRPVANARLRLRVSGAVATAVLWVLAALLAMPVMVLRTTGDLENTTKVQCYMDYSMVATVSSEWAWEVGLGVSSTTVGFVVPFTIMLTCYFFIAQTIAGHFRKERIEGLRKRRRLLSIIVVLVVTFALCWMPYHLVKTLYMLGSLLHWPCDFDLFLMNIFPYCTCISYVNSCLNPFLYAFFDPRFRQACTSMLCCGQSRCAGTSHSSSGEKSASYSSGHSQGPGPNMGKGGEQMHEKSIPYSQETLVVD

[33] = target: C-X-C chemokine receptor type 5 (Homo sapiens, UniProt P32302); experiment: inhibition of CXCL13-driven CXCR5 beta-arrestin recruitment – cell-based, luminescence, CHO-K1 PathHunter, selectivity assay for CCR6 antagonist project, SAR follow-up (AID 540340); format: functional
Sequence of C-X-C chemokine receptor type 5 (P32302 whole entry): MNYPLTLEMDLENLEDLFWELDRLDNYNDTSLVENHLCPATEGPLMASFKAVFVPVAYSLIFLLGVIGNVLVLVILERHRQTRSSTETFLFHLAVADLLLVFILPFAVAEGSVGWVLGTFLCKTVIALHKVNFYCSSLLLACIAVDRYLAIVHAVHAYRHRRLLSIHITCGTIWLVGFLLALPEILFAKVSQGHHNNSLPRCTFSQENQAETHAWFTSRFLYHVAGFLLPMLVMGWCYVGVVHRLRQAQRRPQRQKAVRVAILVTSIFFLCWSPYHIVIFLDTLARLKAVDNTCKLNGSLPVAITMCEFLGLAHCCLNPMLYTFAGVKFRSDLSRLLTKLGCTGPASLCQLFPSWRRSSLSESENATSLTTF

[34] = target: T4, C-C chemokine receptor type 6 (Homo sapiens, UniProt P51684); experiment: analog antagonism of CCR6 beta-arrestin signaling – cell-based, luminescent beta-arrestin readout, SAR follow-up (AID 540334); format: functional
T4 sequence (P51684 whole entry): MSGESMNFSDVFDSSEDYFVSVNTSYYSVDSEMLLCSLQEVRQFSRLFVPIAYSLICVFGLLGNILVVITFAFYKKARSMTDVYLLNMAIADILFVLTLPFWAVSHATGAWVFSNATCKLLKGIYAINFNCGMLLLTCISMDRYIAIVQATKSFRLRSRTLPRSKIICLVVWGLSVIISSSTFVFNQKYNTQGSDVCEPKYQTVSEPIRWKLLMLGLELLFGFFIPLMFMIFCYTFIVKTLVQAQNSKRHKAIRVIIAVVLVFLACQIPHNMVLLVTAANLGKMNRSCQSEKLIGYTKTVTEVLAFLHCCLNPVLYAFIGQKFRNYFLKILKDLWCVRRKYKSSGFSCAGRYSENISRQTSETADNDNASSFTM

CHO = CHO cell viability loss, potency – luminescence, cytotoxicity control for TLR9-MyD88 binding inhibitor project, dose response (AID 588339); format: functional, cell-based, hamster; conditions: Cricetulus griseus;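 also: CHO cells stably coexpressing TLR9 and MyD88 fusions from primary screen; compound exposure lasted 48 hours before viability readout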
Beta Lactamase = Beta Lactamase (Pseudomonas aeruginosa, UniProt Q932Y6); experiment: BLA reporter interference, concentration series – BLA reporter cells, FRET fluorescence, artefact control for TLR9-MyD88 binding inhibitor project, dose response (AID 588341); format: cell-based;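 also: cell based assay in CHO-K1 cells stably expressing beta-lactamase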
Sequence of Beta Lactamase (Q932Y6 whole entry): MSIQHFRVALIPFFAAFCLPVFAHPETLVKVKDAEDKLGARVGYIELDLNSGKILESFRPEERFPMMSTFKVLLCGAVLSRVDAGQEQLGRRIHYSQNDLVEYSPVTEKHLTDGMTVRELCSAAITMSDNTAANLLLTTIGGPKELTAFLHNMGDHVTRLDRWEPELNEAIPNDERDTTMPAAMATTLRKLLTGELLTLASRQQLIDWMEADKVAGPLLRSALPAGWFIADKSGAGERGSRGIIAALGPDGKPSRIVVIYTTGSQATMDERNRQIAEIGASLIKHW

Cc1c(C)c2ccc(OCC(=O)Nc3ccccn3)c(C)c2oc1=O
active: EC50 [1] 0.36 µM | EC50 [2] 0.214 µM | EC50 [3] < 0.16 µM | EC50 [4] 0.236 µM | EC50 [5] 0.629 µM | EC50 [6] 2.73 µM | AC50 [8] 0.101 µM | AC50 (H4 [9]) 0.021 µM | AC50 (H4 [10]) 0.0103 µM | AC50 (H4 [11]) 0.027 µM | AC50 [12] 0.416 µM | AC50 [13] 37.1 µM | AC50 [14] 1.71 µM | AC50 [15] 35 µM | AC50 [16] 6.61 µM | AC50 [17] 1.83 µM | AC50 [18] 0.429 µM | AC50 [19] 1.77 µM | AC50 [20] 33.5 µM | AC50 [21] 25.3 µM | AC50 [22] 0.0802 µM | AC50 [23] < 0.068 µM | AC50 [24] 48.7 µM
inactive: IC50 [7] > 80 µM

CCOC1OC(=O)C(Cl)=C1Nc1ccccc1C (centres undefined)
active: CC50 [25] > 100 µM

COc1cccc(CNc2ccc3c(c2)ncn3C(C)C)c1OC
inactive: EC50 (Insulin-degrading enzyme [27]) > 54.7 µM | EC50 (Insulin-degrading enzyme [28]) 43.8 µM | IC50 (HEK293 [29]) > 89.2 µM | EC50 (HEK293 [30]) > 55.9 µM
active: AC50 [26] 2.58 µM

CCc1ccccc1NC(=O)CSc1nc2nnc(C)c-2c(N)n1-c1cccc(OC)c1
active: IC50 (Nonstructural protein 1) > 100 µM | CC50 (Vero) 24.4 µM | CC50 (MDCK [31]) 35.7 µM | IC50 (MDCK [32]) 7.75 µM

C/C=C(\C)C(=O)OC1[C@H](OC(C)=O)C2(CO)C(CC1(C)C)C1=CCC3C4(C)CCC(O[C@@H]5O[C@H](C(=O)O)[C@@H](O[C@@H]6O[C@H](CO)[C@@H](O)[C@H](O)[C@H]6O)[C@H](O)[C@H]5O[C@H]5O[C@H](CO)[C@@H](O)[C@H](O)[C@H]5O)[C@](C)(CO)C4CCC3(C)[C@]1(C)C[C@H]2O (some centres undefined)
inactive: IC50 [33] 9.46 µM
active: IC50 (Apelin receptor) 9.07 µM | IC50 [34] 7.82 µM

Cc1nn(C)c(C)c1N1C(=O)c2cccc3c(Br)ccc(c23)C1=O
active: IC50 (CHO) 7.3 µM | IC50 (Beta Lactamase) 5.72 µM

From ChEMBL document CHEMBL1201862, “PubChem BioAssay data set” (2004)
